According to article PMC12734683 (Chemistry (Weinheim an Der Bergstrasse, Germany), 2025):
Values belong to the compound of their own block, whether it stands above or below them.

How the values were obtained:
[1] = system: d(5′‐CGCGAATTCGCG‐3′)2 (DNA, duplex) CGCGAATTCGCG; test: ethidium bromide displacement fluorescence quenching, double-log plot; details: 100 mM phosphate (cation not given); pH 7.0, 298 K; 20 μM DNA, 5.2 μM ethidium bromide displaced; apparent
[2] = system: d(5′‐CGCGAATTCGCG‐3′)2 (DNA, duplex) CGCGAATTCGCG; test: 1H NMR titration; details: 100 mM phosphate (cation not given), H2O:D2O 9:1, pH 7.0, 298 K, r = 0.5-2
NIH-3T3 = test: Cell growth assay (IncuCyte Zoom), cytotoxicity to normal fibroblasts; type: cell-based, mouse; details: NIHT‐3T3 normal fibroblasts
Method: (§1) The human breast adenocarcinoma cell line MCF-7 and the mouse embryonic fibroblast cell line NIH-3T3 were cultured in high- glucose Dulbecco’s modified Eagle’s medium (DMEM) supplemented with 10% fetal bovine serum and 1% penicillin/ streptomycin. The human ovarian cancer cell line A2780 and its cisplatin resistant derivative (A2780cis-res) were maintained in RPMI-1640 medium supplemented with 10% fetal bovine serum and 1% penicillin/streptomycin. All cell lines were routinely passaged every 2 – 3 days, and incubated at 37 °C in a humidified atmosphere containing 5% CO2.
(§2) Cell growth and the cytotoxic effects of the complexes were monitored using the IncuCyte Zoom system and software(Essen BioScience, Hertfordshire, United Kingdom), as previously described^84. The IC50 values of cisplatin and of the complexes were determined by fitting a log(concentration) versus normalized response curve using GraphPad Prism, version 8.01.

A2780 = test: Cell growth assay (IncuCyte Zoom), cytotoxicity; type: cell-based, human
Method: as §1, §2

MCF‐7 = test: Cell growth assay (IncuCyte Zoom), cytotoxicity; type: cell-based, human
Method: as §1, §2

A2780cis‐res = test: Cell growth assay (IncuCyte Zoom), cytotoxicity; type: cell-based, human
Method: as §1, §2

K b [1]: 807.6 ± 19.9 × 10^3 M^-1
Compound: Cc1ccc(C(C)C)cc1.Cc1ccc(C(C)C)cc1.[Ru+2].[Ru+2].[c-]1cccc2ccc3cccnc3c12.[c-]1cccc2ccc3cccnc3c12.c1cc(-c2ccncc2)ccn1

K b [1]: 602.8 ± 76.1 × 10^3 M^-1
Compound: Cc1ccc(C(C)C)cc1.Cc1ccc(C(C)C)cc1.[Ru+2].[Ru+2].[c-]1cccc2ccc3cccnc3c12.[c-]1cccc2ccc3cccnc3c12.c1cc(CCCc2ccncc2)ccn1

K b [1]: 298.4 ± 4.3 × 10^3 M^-1
Compound: Cc1ccc(C(C)C)cc1.Cc1ccc(C(C)C)cc1.[Ru+2].[Ru+2].[c-]1cccc2ccc3cccnc3c12.[c-]1cccc2ccc3cccnc3c12.c1cc(CCc2ccncc2)ccn1

K b [1]: 5.59 ± 0.21 × 10^3 M^-1 | binding ([2]; minor-groove intercalation): yes
Compound: Cc1ccc(C(C)C)cc1.Cc1ccc(C(C)C)cc1.[Ru+2].[Ru+2].[c-]1cccc2ccc3cccnc3c12.c1cc(-c2ccncc2)ccn1.c1cnc2c(c1)ccc1cccnc12

K b [1]: 6.70 ± 0.58 × 10^3 M^-1 | binding ([2]; groove binding): yes
Compound: Cc1ccc(C(C)C)cc1.Cc1ccc(C(C)C)cc1.[Ru+2].[Ru+2].[c-]1cccc2ccc3cccnc3c12.c1cc(CCCc2ccncc2)ccn1.c1cnc2c(c1)ccc1cccnc12

K b [1]: 28.51 ± 0.97 × 10^3 M^-1 | binding ([2]; groove binding at duplex ends): yes
Compound: Cc1ccc(C(C)C)cc1.Cc1ccc(C(C)C)cc1.[Ru+2].[Ru+2].[c-]1cccc2ccc3cccnc3c12.c1cc(CCc2ccncc2)ccn1.c1cnc2c(c1)ccc1cccnc12

Compound: N.N.[Cl][Pt][Cl] [cisplatin, reference compound]
IC50 (NIH-3T3): 3.02 ± 0.36 µM | Selectivity index IC50(NIHT‐3T3)/IC50(A2780) (A2780): 0.2 | IC50 (A2780; A2780 cells): 2.54 ± 0.11 µM | IC50 (MCF‐7; MCF‐7 cells): 14.6 ± 1.25 µM | Selectivity index IC50(NIHT‐3T3)/IC50(MCF‐7) (MCF‐7; first of three values in the cell): 1.2 | Resistant factor IC50 (A2780cisR)/IC50(A2780) (A2780cis‐res): 7.3 | IC50 (A2780cis‐res; A2780cis‐res cells): 18.4 ± 1.59 µM | Selectivity index IC50(NIHT‐3T3)/IC50(A2780cis‐res) (A2780cis‐res; third of three values in the cell): 0.2
